Experimental data reported in PMC10223284, “Category-Based Toxicokinetic Evaluations of Data-Poor Per- and Polyfluoroalkyl Substances (PFAS) using Gas Chromatography Coupled with Mass Spectrometry” (Toxics, 2023).
“And” between values parts separate entries of the source, which are not always exact repeats. Identical values can stand only once. Like-named read-outs stand apart in the source and are kept apart here.

Tests used:
[1] = in vitro; conditions: both, human, plasma
[2] = In vitro-in vivo extrapolation (IVIVE) to Css and administered equivalent dose (AED); parameters: species or system human; conditions: for Clhep: IVIVE, hepatocyte Clint scaled to whole-liver clearance; for AED: administered equivalent dose from LOEC and Css; for Fub: fub=fup/(B:P), Fub set to 1 if needed; for CLint: scaled with HPGL 110 mill cells/g, Vl 1596 g
Procedure, shortened: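 Administered equivalent doses come from pairing modelled Css with literature in vitro LOECs. Css itself is predicted by IVIVE from experimental hepatic Clint, scaled up to whole-liver clearance in L/h, and experimental fraction unbound in plasma. That fraction was adjusted to unbound-in-blood via blood:plasma partitioning.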

[3] = test system: pooled human cryopreserved primary hepatocyte suspensions; assay: Hepatic metabolic stability (hepatocyte clearance) assay, substrate depletion; assay type: in vitro ADME; conditions: for Linear Regression Results, Best-Fit Values, Slope: hepatocyte time course
Procedure, shortened: (§1)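 Substrate depletion of 1 μM compound, 37 °C, with pooled human hepatocytes (50-donor, 50,000 cells/100 μL) in William's E; samples quenched in acetonitrile up to 240 min, triplicate time points. Intrinsic clearance (μL/min/million hepatocytes) and half-life derived from semi-log slope, background-adjusted using media-only and inactivated-cell controls; compounds with ≥50% abiotic loss at T120 excluded.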

[4] = as above; assay type: in vitro ADME, human; conditions: both sexes, human; for half-life at 1 μM: read-out: Linear Regression Results, Best-Fit Values, Half Life
Procedure, shortened: as §1

[5] = test system: human plasma; assay: Chemical stability in plasma over the UC assay time course (T5hr/T1hr); conditions: for Time 1 hr, Run-specific Avg / Time 5 hr, Run-specific Avg: run average; for Stability (T5hr/ T1hr), Run-specific Avg: average of one UC run; for PPB_Stab_Fail: flag for stability failure in the plasma protein binding assay (1 = fail, 0 = pass); for Mean Stability: mean T5hr/T1hr ratio in plasma over all replicates/runs; for Fstable.Med: median fraction stable in plasma, UC assay Level4
[6] = test system: human plasma; assay: Ultracentrifugation (UC) plasma protein binding assay, fraction unbound in plasma (fup); conditions: for Aqueous Fraction, Run-specific Avg: run average; for fup: human plasma, 10 μM, ultracentrifugation, 37 °C; for Fup.Med: median fraction unbound in plasma; for Fup.Med / Fup.point: UC assay Level4; for Fup.point: point estimate of fraction unbound in plasma
[7] = Abiotic loss in negative controls of the hepatocyte clearance assay (cell-free media, metabolically inactivated hepatocytes); assay type: in vitro ADME; conditions: for Hep_Stab_Fail: flag for stability failure in hepatocyte clearance assay controls (1 or Fst = fail, 0 = pass)
Procedure, shortened: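 Abiotic stability was checked with media-only and inactivated-hepatocyte controls, run at T0 and T240 or, on rerun, at more time points. Compound at 1 μM, 37 °C, acetonitrile quench. Loss rates served for background subtraction, and ≥50% loss by T120 meant exclusion.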

[8] = Fraction Unbound (fu), Run-specific Avg, average of one UC run
[9] = Mean fu, fraction unbound in human plasma, ultracentrifugation, some values based on eLOQ
[10] = Assuming 1 mg/kg/day dose rate, BW 70 kg
[11] = human steady-state plasma concentration, assuming 1 mg/kg/day dosage
[12] = hepatocyte incubation, Rep 1-3, start conc 1000 nM
[13] = hepatocytes, background-subtracted, read-out: Bkgd-Sub Clearance (µL/min/106 hepatocytes)
[14] = hepatocytes, hepatocyte clearance, Conc 1000 nM, not background adjusted, read-out: Unadj Clint
[15] = hepatocytes, pooled human hepatocyte suspensions, 1 μM, read-out: In Vitro Clint
[16] = hepatocytes, unadjusted hepatocyte intrinsic clearance, read-out: Unadj in vitro Clint
[17] = hepatocytes, hepatocyte time course, NS = slope not significant, read-out: Linear Regression Results, Best-Fit Values, Clearance
[18] = hepatocytes, hepatocyte time course, NS = slope not significant
[19] = amount measured in plasma sample at 1 hr, unit not given
[20] = amount measured in plasma sample at 5 hr, unit not given
[21] = amount measured in aqueous fraction after ultracentrifugation, unit not given

SMILES: NC(=O)C(F)(F)C(F)(F)C(F)(F)F [Heptafluorobutyramide]
- fraction unbound [1, 8]: 0.6
- fraction unbound ([1]; Fraction Unbound (fu), replicate A, individual replicate A of the UC run dated in c8): 0.667
- fraction unbound ([1]; Fraction Unbound (fu), replicate B, individual replicate B of the UC run dated in c8): 0.57
- fraction unbound ([1]; Fraction Unbound (fu), replicate C, individual replicate C of the UC run dated in c8): 0.565
- fraction unbound ([1]; Mean Fu (fraction unbound), mean over all UC runs and replicates, human plasma): 0.603
- fraction unbound ([1]; Mean Fu, mean fraction unbound in human plasma over all UC replicates/runs): 0.603
- fraction unbound [1, 9]: 0.603
- fraction unbound ([1]; Mean fu, fraction unbound in human plasma, used for IVIVE): 0.603
- Css [2, 10]: 0.0422 mg/L and 0.20 uM
- Clhep [2]: 63.013 L/h
- AED [2]: 101.0389 mg/kg/day
- Fub [2]: 1
- Css [2, 11]: 0.20 µM
- CLint [2]: 3502422 µL/min
- Concentration (nM), Time 0 min [3, 12]: 988.297 nM and 784.776 nM and 618.66 nM
- Concentration (nM), Time 15 min [3, 12]: 550.618 nM and 957.096 nM and 714.95 nM
- Concentration (nM), Time 30 min [3, 12]: 499.471 nM and 561.118 nM and 588.537 nM
- Concentration (nM), Time 60 min [3, 12]: 417.033 nM and 313.668 nM and 348.927 nM
- Concentration (nM), Time 120 min [3, 12]: 201.833 nM and 266.362 nM and 226.765 nM
- Linear Regression Results, Best-Fit Values, Slope [3]: -0.009975
- hepatocyte CLint at 1 μM [4, 13]: 19.9 µL/min/1e6 cells
- hepatocyte CLint at 1 μM ([4]; hepatocytes, hepatocyte clearance, Conc 1000 nM, background adjusted, read-out: Bkgd Adj Clint): 19.9 µL/min/1e6 cells
- hepatocyte CLint at 1 μM [4, 14]: 19.9 µL/min/1e6 cells
- hepatocyte CLint at 1 μM ([4]; hepatocytes, hepatocyte intrinsic clearance adjusted for background (abiotic) loss, read-out: Bkgd_adj_Clint): 19.9 µL/min/1e6 cells
- hepatocyte CLint at 1 μM [4, 15]: 19.9 µL/min/1e6 cells
- hepatocyte CLint at 1 μM [4, 16]: 19.9 µL/min/1e6 cells
- hepatocyte CLint at 1 μM [4, 17]: 19.9 µL/min/1e6 cells
- half-life at 1 μM [4, 18]: 1.16 h
- Time 1 hr, Run-specific Avg [5, 19]: 9336.10
- Time 5 hr, Run-specific Avg [5, 20]: 8817.96
- Stability (T5hr/ T1hr), Run-specific Avg [5]: 0.945
- PPB_Stab_Fail [5]: 0
- Mean Stability [5]: 0.963
- Mean Stability (T5hr/T1hr) ([5]; mean over all UC runs and replicates, human plasma): 0.963
- Fstable.Med [5]: 0.999
- Aqueous Fraction, Run-specific Avg [6, 21]: 5392.01
- fup [6]: 0.6030
- Fup.Med [6]: 0.566
- Fup.point [6]: 0.601
- Hep_Stab_Fail [7]: 0
- Negative Controls, No cells (NC), concentration at 240 min ([7]; no cells, Rep 1-3): 409.23 nM and 475.181 nM and 464.709 nM

SMILES: OCCC(F)(F)C(F)(F)C(F)(F)C(F)(F)F [4:2 Fluorotelomer alcohol]
- fraction unbound [1, 8]: 0.17
- fraction unbound ([1]; Fraction Unbound (fu), individual replicates A, B, C of the UC run named in c8): 0.206
- fraction unbound [1, 9]: 0.168
- Css [2, 10]: 0.0547 mg/L and 0.21 uM
- Clhep [2]: 51.672 L/h
- AED [2]: 9.6507 mg/kg/day
- Fub [2]: 0.3055
- Css [2, 11]: 0.21 µM
- CLint [2]: 6620368 µL/min
- Concentration (nM), Time 0 min [3, 12]: 12113.7 nM and 7313.14 nM
- Concentration (nM), Time 15 min [3, 12]: 1692.86 nM and 1166.53 nM and 1804.74 nM
- Concentration (nM), Time 30 min [3, 12]: 339.856 nM and 404.508 nM and 458.803 nM
- Concentration (nM), Time 60 min [3, 12]: 47.9903 nM and 38.9317 nM and 58.7749 nM
- Concentration (nM), Time 120 min [3, 12]: 18.0283 nM and 18.9716 nM and 31.4203 nM
- Concentration (nM), Time 240 min [3, 12]: 21.5215 nM and 17.4089 nM and 13.0166 nM
- Linear Regression Results, Best-Fit Values, Slope [3]: -0.02281
- hepatocyte CLint at 1 μM [4, 13]: 37.7 µL/min/1e6 cells
- hepatocyte CLint at 1 μM [4, 14]: 45.6 µL/min/1e6 cells
- hepatocyte CLint at 1 μM [4, 15]: 37.7 µL/min/1e6 cells
- hepatocyte CLint at 1 μM [4, 16]: 45.6 µL/min/1e6 cells
- hepatocyte CLint at 1 μM [4, 17]: 45.6 µL/min/1e6 cells
- half-life at 1 μM [4, 18]: 0.506 h
- hepatocyte CLint at 1 μM ([4]; s9, Bayesian analysis median, 1 μM assay concentration (Table S9), read-out: Clint.1.Med): 306 µL/min/1e6 cells
- Time 1 hr ([5]; amount measured in plasma sample at 1 hr, replicates A, B, C, unit not given): 13164.3 and 12271.8 and 13036
- Time 1 hr, Run-specific Avg [5, 19]: 12824.02
- Time 5 hr ([5]; amount measured in plasma sample at 5 hr, replicates A, B, C, unit not given): 8478.66 and 10253.1 and 9709.96
- Time 5 hr, Run-specific Avg [5, 20]: 9365.87
- Stability (T5hr/ T1hr), Run-specific Avg [5]: 0.730
- PPB_Stab_Fail [5]: 0
- Mean Stability [5]: 0.740
- Fstable.Med [5]: 0.21
- Aqueous Fraction ([6]; amount measured in aqueous fraction after ultracentrifugation, replicates A, B, C, unit not given): 1744.82 and 3486.44 and 1261.67
- Aqueous Fraction, Run-specific Avg [6, 21]: 2164.31
- fup [6]: 0.1680
- Fup.Med [6]: 0.235
- Fup.point [6]: 0.231
- half-life at 1 μM ([7]; buffer, no cells control, 0 vs 240 min, read-out: No Cells BkgdCl, Half Life): 2.92 h
- Hep_Stab_Fail [7]: 0
- No Cells BkgdCl, Slope ([7]; no cells control, 0 vs 240 min): -0.003956
- Negative Controls, No cells (NC), concentration at 0 min ([7]; no cells, Rep 1-3): 10 µM
- Negative Controls, No cells (NC), concentration at 240 min ([7]; no cells, Rep 1-3): 3870 nM
